Measurements as given in ChEMBL document CHEMBL5331133, “Discovery of AZD4747, a Potent and Selective Inhibitor of Mutant GTPase KRASG12C with Demonstrable CNS Penetration” (J Med Chem, 2023).

What was measured:
[1] = Volume of distribution at steady state in CD-1 mouse at 2.3 microM/Kg, iv; format: ADME; settings: in vivo
[2] = Oral bioavailability in CD-1 mouse at 6.8 microM/Kg; format: ADME, organism-based; settings: in vivo, at 6.8 µmol/kg
[3] = Half life in Wistar Han rat at 1.1 to 2.3 microM/Kg, iv; format: ADME; settings: in vivo, dose 1.1-2.3 µM/Kg
[4] = Toxicity in athymic nude mouse xenografted with human NCI-H358 cells harboring KRAS G12C mutant assessed as body weight change at 10 to 100 mg/kg, po for 21 days; format: organism-based; settings: in vivo, 504 h, dose 10-100 mg/kg, time 21 day
[5] = Unbound brain-to-plasma concentration ratio in Wistar Han rat at 2.3 microM/Kg, iv and measured after 1 hrs in presence of pretreatment with elacridar for 0.5 hrs; format: ADME, organism-based; settings: with elacridar (pretreatment for 0.5 hrs, dose not stated), read-out: K(p,uu,brain)
[6] = Hepatic blood flow in Beagle dog at 1.1 microM/Kg, iv; format: ADME, Canis lupus familiaris
[7] = Free drug concentration in athymic nude mouse plasma xenografted with human NCI-H358 cells harboring KRAS G12C mutant at 30 to 100 mg/kg, po and measured upto 24 hrs; format: ADME, organism-based; settings: in vivo, dose 30-100 mg/kg
[8] = Inhibition of KRAS/MAPK pathway in human PC-9 cells harboring wild-type KRAS assessed as decrease in p90RSK phosphorylation incubated for 2 hrs by immunofluorescence assay; format: cell-based; settings: PC-9, 2 h
[9] = Observed clearance in Beagle dog at 1.1 microM/Kg, iv; format: ADME, Canis lupus familiaris; settings: in vivo
[10] = Drug distribution in iv dosed Cynomolgus monkey brain administered as […] compound and assessed as radioactivity and measured 5 to 123 min post dose by PET imaging analysis; format: ADME, organism-based, Macaca fascicularis; settings: in vivo, time 5-123 min
[11] = Unbound brain-to-plasma concentration ratio in Wistar Han rat at 2.3 microM/Kg, iv and measured after 4 hrs; format: ADME, organism-based; settings: read-out: K(p,uu,brain)
[12] = Hepatic extraction ratio in Beagle dog at 1.1 microM/Kg, iv; format: ADME, Canis lupus familiaris; settings: at 1.1 µmol/kg, read-out: ERH
[13] = Half life in Beagle dog at 1.1 microM/Kg, iv; format: ADME, Canis lupus familiaris; settings: in vivo
[14] = Oral bioavailability in Wistar Han rat at 2.3 to 6.8 microM/Kg; format: ADME, organism-based; settings: in vivo, dose 2.3-6.8 µM/Kg
[15] = Hepatic blood flow in CD-1 mouse at 2.3 microM/Kg, iv; format: ADME
[16] = test system: MDR1 and BCRP; experiment: Efflux ratio of apparent permeability in dog MDCK cells transfected with MDR1 and BCRP at 0.1 uM; format: ADME, cell-based, Canis lupus familiaris
[17] = […] stability in rat hepatocyte assessed as intrinsic clearance measured per million of cells; format: ADME, cell-based; settings: hepatocytes
[18] = Oral bioavailability in Beagle dog at 2.3 microM/Kg; format: ADME, organism-based, Canis lupus familiaris; settings: in vivo, at 2.3 µmol/kg
[19] = Inhibition of KRAS/MAPK pathway in human NCI-H358 cells harboring KRAS G12C mutant assessed as decrease in p90RSK phosphorylation incubated for 2 hrs by immunofluorescence assay; format: cell-based; settings: NCI-H358, 2 h
[20] = Volume of distribution at steady state in Wistar Han rat at 1.1 to 2.3 microM/Kg, iv; format: ADME; settings: in vivo, dose 1.1-2.3 µM/Kg, read-out: Vdss
[21] = biological target: GTPase KRas (Homo sapiens, UniProt P01116, G12C)
[22] = Hepatic extraction ratio in Wistar Han rat at 1.1 to 2.3 microM/Kg, iv; format: ADME; settings: dose 1.1-2.3 µM/Kg, read-out: ERH
[23] = Unbound brain-to-plasma concentration ratio in Beagle dog at 170 to 680 microM/Kg, po QD for 15 days and measured 2 hrs last dose; format: ADME, organism-based, Canis lupus familiaris; settings: dose 170-680 µM/Kg, time 15 day, read-out: K(p,uu,brain)
[24] = test system: NCI-H358; experiment: Antiproliferative activity against human NCI-H358 cells harboring KRAS G12C mutant cultured as […] assessed as reduction in cell proliferation incubated for 3 days by CellTiter-Glo reagent based assay; format: functional; settings: NCI-H358, 72 h
[25] = Inhibition of KRAS/MAPK pathway in human Calu-6 cells harboring KRAS Q61K mutant assessed as decrease in p90RSK phosphorylation incubated for 2 hrs by immunofluorescence assay; format: cell-based; settings: Calu-6, 2 h
[26] = species on record: Mus musculus; settings: dose 10-30 mg/kg, route po, time 6.0 hrs
[27] = Lipophilicity, logD of compound at 7.4; settings: octanol/water, pH 7.4, logD
[28] = Volume of distribution at steady state in Beagle dog at 1.1 microM/Kg, iv; format: ADME, Canis lupus familiaris; settings: in vivo, read-out: Vdss
[29] = Observed clearance in Wistar Han rat at 1.1 to 2.3 microM/Kg, iv; format: ADME; settings: in vivo, dose 1.1-2.3 µM/Kg
[30] = test system: NCI-H358; experiment: Antiproliferative activity against human NCI-H358 cells harboring KRAS G12C mutant cultured as 3D spheroids assessed as reduction in cell proliferation incubated for 3 days by CellTiter-Glo 3D reagent based assay; format: functional; settings: NCI-H358, 72 h
[31] = test system: A549; experiment: Antiproliferative activity against human A549 cells harboring KRAS G12S mutant cultured as 3D spheroids assessed as reduction in cell proliferation incubated for 3 days by CellTiter-Glo 3D reagent based assay; format: functional; settings: A549, 72 h
[32] = in vitro; settings: human, liver microsomes, CLH
Description: Microsomal stability in human liver microsomes assessed as intrinsic clearance

[33] = Unbound brain-to-plasma concentration ratio in iv dosed Cynomolgus monkey administered as […] compound by HPLC analysis; format: ADME, organism-based, Macaca fascicularis; settings: read-out: K(p,uu,brain)
[34] = Hepatic blood flow in Wistar Han rat at 1.1 to 2.3 microM/Kg, iv; format: ADME; settings: dose 1.1-2.3 µM/Kg
[35] = Hepatic extraction ratio in CD-1 mouse at 2.3 microM/Kg, iv; format: ADME; settings: at 2.3 µmol/kg, read-out: ERH
[36] = species on record: Mus musculus; settings: dose 10-30 mg/kg, route po, time 3.0 hrs

GTPase KRas, sequence (P01116 whole entry G12C): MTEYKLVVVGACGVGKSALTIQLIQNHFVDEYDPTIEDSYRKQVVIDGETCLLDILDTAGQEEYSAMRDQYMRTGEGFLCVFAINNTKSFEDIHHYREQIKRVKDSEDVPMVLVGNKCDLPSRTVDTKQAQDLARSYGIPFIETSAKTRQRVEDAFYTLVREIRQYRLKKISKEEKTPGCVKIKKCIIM

Compound: C=CC(=O)N1CCN2Cc3cc(C#CC)c(-c4c(O)cccc4Cl)c(F)c3OC[C@H]2C1
- Vdss [1]: 2.9 L/kg
- bioavailability [2]: 58%
- half-life [3]: 0.56 h
- Activity [4]: Non-Toxic
- Kp uu at 1 h [5]: 1
- QH [6]: 3.3 L/h/kg
- Cp(f) [7]: 0.04 µM
- IC50 [8]: > 30 µM
- clearance [9]: 0.6 L/h/kg
- Drug uptake [10]: Active
- Kp uu at 4 h [11]: 0.11
- hepatic extraction ratio [12]: 0.19
- half-life [13]: 1.7 h
- bioavailability [14]: 18%
- QH [15]: 9.12 L/h/kg
- efflux ratio at 0.1 µM [16]: 1.1
- CLH [17]: 34 µL/min
- bioavailability [18]: 63%
- IC50 [19]: 0.065 µM
- Vd [20]: 1.7 L/kg
- IC50 [21]: 0.015 µM
- hepatic extraction ratio [22]: 0.75
- Kp uu at 360 h [23]: 0.7
- IC50 [24]: 0.36 µM
- IC50 [25]: > 30 µM
- inhibition [26]: Dose-Dependent Effect
- logD [27]: 2.9
- Vd [28]: 1.2 L/kg
- clearance [29]: 3.24 L/h/kg
- IC50 [30]: 0.012 µM
- IC50 [31]: 23.3 µM
- microsomal CLint [32]: 15 µL/min/mg
- Kp uu [33]: 1.6
- QH [34]: 4.32 L/h/kg
- hepatic extraction ratio [35]: 0.52
- inhibition [36]: Dose-Dependent Effect
